The values that follow come from patent US7951804B2, “Piperidinyl compounds” (Merck Patent GmbH, priority 2003, dated 2011).

pIC50: −log10 of the molar value. Counter-ions that a name gives are not always drawn.

One test concerns the target FXa (Homo sapiens, UniProt P00742). Put plainly: Factor Xa inhibition (FXa-IC50). In kind it is biochemical. The text has this:
The inhibition of factor Xa by the compounds according to the invention and the measurement of the anticoagulant and antithrombotic activity can be determined by conventional in-vitro or in-vivo methods. A suitable method is described, for example, by J. Hauptmann et al. in Thrombosis and Haemostasis 1990, 63, 220-223.
The inhibition of factor Xa can be measured, for example, by the method of T. Hara et al. in Thromb. Haemostas. 1994, 71, 314-319.

In a further test the target is TF/FVIIa (Homo sapiens, UniProt P08709). Put plainly: TF/factor VIIa inhibition (TF/FVIIa-IC50). In kind it is biochemical. The text has this: The inhibition of factor VIIa by the compounds according to the invention and the measurement of the anticoagulant and antithrombotic activity can be determined by conventional in-vitro or in-vivo methods. A conventional method for the measurement of the inhibition of factor Vila is described, for example, by H. F. Ronning et al. in Thrombosis Research 1996, 84, 73-81.
TF/FVIIa, sequence (P08709 213-466 limits assumed): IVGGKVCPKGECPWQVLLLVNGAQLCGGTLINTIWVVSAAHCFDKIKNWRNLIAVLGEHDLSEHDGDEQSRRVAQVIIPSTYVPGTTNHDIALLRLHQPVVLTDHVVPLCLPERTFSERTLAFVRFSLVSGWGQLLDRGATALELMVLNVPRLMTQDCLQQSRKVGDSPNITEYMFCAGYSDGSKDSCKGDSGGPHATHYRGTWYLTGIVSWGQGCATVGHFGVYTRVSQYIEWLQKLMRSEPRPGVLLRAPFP
TF/FVIIa, sequence (P08709 61-212 partner limits assumed): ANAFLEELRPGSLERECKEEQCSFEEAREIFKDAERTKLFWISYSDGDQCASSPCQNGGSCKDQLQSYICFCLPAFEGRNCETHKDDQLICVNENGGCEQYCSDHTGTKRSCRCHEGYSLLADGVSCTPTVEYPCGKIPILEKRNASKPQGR
TF/FVIIa, sequence (P13726 33-295 partner): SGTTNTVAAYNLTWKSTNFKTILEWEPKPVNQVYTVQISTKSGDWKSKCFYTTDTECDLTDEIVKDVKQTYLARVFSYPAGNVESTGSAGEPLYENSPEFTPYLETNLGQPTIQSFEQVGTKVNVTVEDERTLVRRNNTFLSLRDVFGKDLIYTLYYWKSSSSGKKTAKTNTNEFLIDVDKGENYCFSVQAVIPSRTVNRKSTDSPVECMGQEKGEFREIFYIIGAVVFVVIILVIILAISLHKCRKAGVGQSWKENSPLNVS

FXa, sequence (P00742 235-488 limits assumed): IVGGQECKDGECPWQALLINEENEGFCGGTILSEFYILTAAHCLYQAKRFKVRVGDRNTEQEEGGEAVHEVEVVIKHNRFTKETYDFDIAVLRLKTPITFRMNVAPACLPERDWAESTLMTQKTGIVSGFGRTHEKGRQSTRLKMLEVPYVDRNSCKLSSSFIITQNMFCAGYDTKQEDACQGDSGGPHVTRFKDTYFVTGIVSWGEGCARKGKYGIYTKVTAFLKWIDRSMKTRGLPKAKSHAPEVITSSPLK
FXa, sequence (P00742 41-179 partner limits assumed): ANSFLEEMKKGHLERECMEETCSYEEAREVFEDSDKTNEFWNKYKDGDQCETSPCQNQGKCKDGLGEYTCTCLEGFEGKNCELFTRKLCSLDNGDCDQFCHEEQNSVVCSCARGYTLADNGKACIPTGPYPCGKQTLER

Usually pIC50 stands for −log10 of the IC50, conventionally taken in molar units. As for `O=C(Nc1ccc(Cl)cc1)N[C@@H](C(=O)N1CCN(c2ccc(F)cc2)CC1)c1ccccc1` [Compound 2, (R)-1-(4-chlorophenyl)-3-{2-[4-(4-fluorophenyl)piperazin-1-yl]-2-oxo-1-phenylethyl}urea], the negative-log IC50 (pIC50) on FXa was 6.17; at TF/FVIIa it was 5.77.
Turning to `CN1CCC(N2CCN(C(=O)[C@H](NC(=O)Nc3ccc(Cl)cc3)c3ccccc3)CC2)CC1` [Compound 5, (R)-1-(4-chlorophenyl)-3-{2-[4-(1-methylpiperidin-4-yl)piperazin-1-yl]-2-oxo-1-phenylethyl}urea bistrifluoroacetate], the pIC50 on FXa is 7.77; against TF/FVIIa it was 8.20.
Taken in the same sequence, the figures for `CN1CCC(C2CCN(C(=O)[C@H](NC(=O)Nc3ccc(Cl)cc3)c3ccccc3)CC2)CC1` [Compound 1, (R)-1-(4-chlorophenyl)-3-[2-(1′-methyl-4,4′-bipiperidinyl-1-yl)-2-oxo-1-phenylethyl]urea] were 8.22 and 8.16.
Consider `CN1CCC(C2CCN(C(=O)[C@H](OC(=O)Nc3ccc(Cl)cc3)c3ccccc3)CC2)CC1` [Compound 49, 2-(1′-methyl-4,4′-bipiperidinyl-1-yl)-2-oxo-1-phenylethyl (R)-4-chlorophenyl)carbamate trifluoroacetate], for which the pIC50 was 7.96 at FXa and 7.82 against TF/FVIIa.
